This assay concerns ATDC5 cells. As to the kind of experiment: Proliferation test of ATDC5 cells. In kind it is cell-based. The procedure:
ATDC5 cells were cultured at a cell density of 5×10^5 cells/35 mm dish. As the culture solution, DMEM-Ham's F12 medium containing 5% FBS and 1% Pen/Strep was used. Adjustment was conducted to final concentrations of MPMBP of 10 μM (M10) and 100 μM (M100), clodronate of 10 μM (C10) and 100 μM (C100), zoledronate of 10 μM (Z10) and 100 μM (Z100) and a control (Vehicle), and the cells were cultured under the conditions of 5% CO2 at 37° C. The medium was changed every three days.

Consider `O=P(O)(O)C(O)(Cn1ccnc1)P(=O)(O)O` [zoledronate], for which the number of cells result runs as follows: (sixth day of culture, 10 μM) “decreased significantly”; (sixth day of culture, 100 μM) “decreased significantly”; (third day of culture, 10 μM) “decreased”; (third day of culture, 100 μM) “decreased”.

As to `O=P(O)(O)C(Cl)(Cl)P(=O)(O)O` [clodronate], the number of cells entry is “increased” (third day of culture, 10 μM) and “increased” (third day of culture, 100 μM).
